Experimental data taken from US7160888B2, “[1,8]naphthyridin-2-ones and related compounds for the treatment of schizophrenia” (Warner Lambert Company LLC, priority 2003, dated 2007).

How the values were obtained:
D2 receptor = D2 receptor (Homo sapiens, UniProt P14416); assay: [3H]Thymidine uptake assay for D2 intrinsic activity; assay type: cell-based; conditions: Table 1; test compound 1 μM; 1 μM Quinpirole = 100% intrinsic activity
Chain of D2 receptor (P14416 whole entry): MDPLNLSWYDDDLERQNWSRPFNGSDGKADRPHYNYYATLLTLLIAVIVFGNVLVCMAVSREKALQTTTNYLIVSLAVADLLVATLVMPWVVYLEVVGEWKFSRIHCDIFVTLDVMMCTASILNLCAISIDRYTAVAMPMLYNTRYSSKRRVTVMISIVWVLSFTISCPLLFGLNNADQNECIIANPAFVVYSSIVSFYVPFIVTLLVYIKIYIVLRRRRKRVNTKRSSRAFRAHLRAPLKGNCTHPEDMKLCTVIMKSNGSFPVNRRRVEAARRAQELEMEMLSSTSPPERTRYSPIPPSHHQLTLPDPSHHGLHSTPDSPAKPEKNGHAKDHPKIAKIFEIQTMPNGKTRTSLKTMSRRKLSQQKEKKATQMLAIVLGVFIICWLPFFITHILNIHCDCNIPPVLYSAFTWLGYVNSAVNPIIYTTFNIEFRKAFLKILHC

Structure (SMILES)	melting point	Emax at 1 µM (D2 receptor)
Cc1cc2c(nc1OCCCCN1CCN(c3cccc4ccccc34)CC1)NC(=O)CC2 [Example E2, 6-Methyl-7-[4-(4-naphthalen-1-yl-piperazin-1-yl)-butoxy]-3,4-dihydro-1H-[1,8]naphthyridin-2-one]	76 to 78 °C	22%
O=C1NCc2ccc(OCCCCN3CCN(c4cccc(Cl)c4Cl)CC3)nc2N1 [Example F1, 7-{4-[4-(2,3-Dichloro-phenyl)-piperazin-1-yl]-butoxy}-3,4-dihydro-1H-pyrido[2,3-d]pyrimidin-2-one]	166 to 167 °C	8%
O=C1NCc2ccc(OCCCCN3CCN(c4cccc5ccccc45)CC3)nc2N1 [Example F2, 7-[4-(4-Naphthalen-1-yl-piperazin-1-yl)-butoxy]-3,4-dihydro-1H-pyrido[2,3-d]pyrimidin-2-one]	136 to 138 °C	30%
